The NIST ThermoML archive (doi:10.1021/je050503q)
± gives the expanded uncertainty stated by the source.

Assay: xn = mol fraction of the nth substance listed
Settings: Liquid

COCCOCCOCCOC [2,5,8,11-tetraoxadodecane] + FCC(F)(F)F
Settings | mass density [kg/m3]
303.34 K, 4000 kPa, x2 = 0.9798 | 1202.73 ± 0.34
303.34 K, 4990 kPa, x2 = 0.9798 | 1207.56 ± 0.35
303.34 K, 6008 kPa, x2 = 0.9798 | 1212.35 ± 0.35
303.35 K, 1189 kPa, x2 = 0.9655 | 1186.88 ± 0.34
303.35 K, 2013 kPa, x2 = 0.9655 | 1191.11 ± 0.35
303.35 K, 2992 kPa, x2 = 0.9655 | 1195.95 ± 0.35
303.35 K, 4008 kPa, x2 = 0.9655 | 1200.76 ± 0.35
303.35 K, 4992 kPa, x2 = 0.9655 | 1205.25 ± 0.36
303.35 K, 5987 kPa, x2 = 0.9655 | 1209.62 ± 0.36
313.35 K, 1434 kPa, x2 = 0.9485 | 1152.06 ± 0.34
313.35 K, 1434 kPa, x2 = 0.9798 | 1151.46 ± 0.34
313.35 K, 2004 kPa, x2 = 0.9798 | 1155.29 ± 0.35
313.35 K, 2014 kPa, x2 = 0.9485 | 1155.26 ± 0.34
313.35 K, 2982 kPa, x2 = 0.9798 | 1161.59 ± 0.34
313.35 K, 2990 kPa, x2 = 0.9485 | 1160.47 ± 0.34
313.35 K, 3990 kPa, x2 = 0.9485 | 1165.56 ± 0.35
313.35 K, 4985 kPa, x2 = 0.9485 | 1170.41 ± 0.35
313.35 K, 4986 kPa, x2 = 0.9798 | 1173.51 ± 0.34
313.35 K, 5997 kPa, x2 = 0.9485 | 1175.14 ± 0.35
313.36 K, 1436 kPa, x2 = 0.9655 | 1152.44 ± 0.34
313.36 K, 3010 kPa, x2 = 0.9655 | 1161.91 ± 0.34
313.36 K, 3986 kPa, x2 = 0.9798 | 1167.71 ± 0.34
313.36 K, 5983 kPa, x2 = 0.9798 | 1179.03 ± 0.34
313.37 K, 2008 kPa, x2 = 0.9655 | 1155.97 ± 0.34
313.37 K, 4000 kPa, x2 = 0.9655 | 1167.49 ± 0.34
313.37 K, 5010 kPa, x2 = 0.9655 | 1172.9 ± 0.34
313.37 K, 5984 kPa, x2 = 0.9655 | 1177.91 ± 0.35
323.39 K, 1731 kPa, x2 = 0.9798 | 1112.96 ± 0.36
323.39 K, 1737 kPa, x2 = 0.9485 | 1118.26 ± 0.35
323.39 K, 1989 kPa, x2 = 0.9798 | 1115.09 ± 0.36
323.39 K, 1994 kPa, x2 = 0.9485 | 1119.99 ± 0.34
323.39 K, 3007 kPa, x2 = 0.9485 | 1126.53 ± 0.34
323.39 K, 3987 kPa, x2 = 0.9485 | 1132.49 ± 0.34
323.39 K, 4990 kPa, x2 = 0.9485 | 1138.29 ± 0.34
323.39 K, 5982 kPa, x2 = 0.9485 | 1143.72 ± 0.34
323.4 K, 3001 kPa, x2 = 0.9798 | 1123.14 ± 0.36
323.4 K, 4006 kPa, x2 = 0.9798 | 1130.6 ± 0.35
323.4 K, 4997 kPa, x2 = 0.9798 | 1137.51 ± 0.35
323.4 K, 5982 kPa, x2 = 0.9798 | 1144 ± 0.34
323.41 K, 1737 kPa, x2 = 0.9655 | 1116.04 ± 0.35
323.41 K, 1998 kPa, x2 = 0.9655 | 1118.03 ± 0.35
323.41 K, 3002 kPa, x2 = 0.9655 | 1125.33 ± 0.35
323.41 K, 4001 kPa, x2 = 0.9655 | 1132.15 ± 0.34
323.41 K, 4985 kPa, x2 = 0.9655 | 1138.48 ± 0.34
323.41 K, 6012 kPa, x2 = 0.9655 | 1144.72 ± 0.34
